The text below walks through data of ChEMBL document CHEMBL5291721, “A preclinical secondary pharmacology resource illuminates target-adverse drug reaction associations of marketed drugs” (Nat Commun, 2023).

Experiment [1] deals with T1, Muscarinic acetylcholine receptor M1 (Homo sapiens, UniProt P11229).
T1 sequence (P11229 whole entry): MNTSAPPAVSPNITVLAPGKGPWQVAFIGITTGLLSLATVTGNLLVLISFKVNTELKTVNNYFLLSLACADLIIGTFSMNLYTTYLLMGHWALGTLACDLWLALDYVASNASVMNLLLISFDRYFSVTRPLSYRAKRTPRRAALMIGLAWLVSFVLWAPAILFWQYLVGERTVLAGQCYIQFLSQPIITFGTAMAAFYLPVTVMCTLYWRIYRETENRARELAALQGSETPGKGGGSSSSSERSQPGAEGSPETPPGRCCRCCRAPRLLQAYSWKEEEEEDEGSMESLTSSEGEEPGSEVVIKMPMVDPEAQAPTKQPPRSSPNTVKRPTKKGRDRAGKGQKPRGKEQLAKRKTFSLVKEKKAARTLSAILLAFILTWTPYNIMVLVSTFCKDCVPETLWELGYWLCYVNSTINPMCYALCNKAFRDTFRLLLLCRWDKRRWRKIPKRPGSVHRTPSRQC
The experiment is classed as functional, cell-based.

Experiment [2] deals with T2, Gamma-aminobutyric acid receptor subunit alpha-1 (Rattus norvegicus, UniProt P62813).
T2 sequence (P62813 whole entry): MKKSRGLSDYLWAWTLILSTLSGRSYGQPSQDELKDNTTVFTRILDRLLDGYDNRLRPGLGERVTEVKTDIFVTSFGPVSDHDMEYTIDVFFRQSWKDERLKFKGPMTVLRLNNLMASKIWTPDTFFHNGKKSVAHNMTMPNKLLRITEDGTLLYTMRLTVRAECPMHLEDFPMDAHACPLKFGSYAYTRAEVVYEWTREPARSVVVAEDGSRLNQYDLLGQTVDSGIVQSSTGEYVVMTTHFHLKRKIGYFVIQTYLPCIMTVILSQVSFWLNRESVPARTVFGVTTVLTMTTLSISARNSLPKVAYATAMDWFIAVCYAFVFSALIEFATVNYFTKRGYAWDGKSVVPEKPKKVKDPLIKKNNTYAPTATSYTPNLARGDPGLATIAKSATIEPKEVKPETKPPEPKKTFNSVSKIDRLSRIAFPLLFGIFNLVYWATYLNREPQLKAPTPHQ
In experiment [3] the target is T3, Androgen receptor (Homo sapiens, UniProt P10275).
T3 sequence (P10275 whole entry): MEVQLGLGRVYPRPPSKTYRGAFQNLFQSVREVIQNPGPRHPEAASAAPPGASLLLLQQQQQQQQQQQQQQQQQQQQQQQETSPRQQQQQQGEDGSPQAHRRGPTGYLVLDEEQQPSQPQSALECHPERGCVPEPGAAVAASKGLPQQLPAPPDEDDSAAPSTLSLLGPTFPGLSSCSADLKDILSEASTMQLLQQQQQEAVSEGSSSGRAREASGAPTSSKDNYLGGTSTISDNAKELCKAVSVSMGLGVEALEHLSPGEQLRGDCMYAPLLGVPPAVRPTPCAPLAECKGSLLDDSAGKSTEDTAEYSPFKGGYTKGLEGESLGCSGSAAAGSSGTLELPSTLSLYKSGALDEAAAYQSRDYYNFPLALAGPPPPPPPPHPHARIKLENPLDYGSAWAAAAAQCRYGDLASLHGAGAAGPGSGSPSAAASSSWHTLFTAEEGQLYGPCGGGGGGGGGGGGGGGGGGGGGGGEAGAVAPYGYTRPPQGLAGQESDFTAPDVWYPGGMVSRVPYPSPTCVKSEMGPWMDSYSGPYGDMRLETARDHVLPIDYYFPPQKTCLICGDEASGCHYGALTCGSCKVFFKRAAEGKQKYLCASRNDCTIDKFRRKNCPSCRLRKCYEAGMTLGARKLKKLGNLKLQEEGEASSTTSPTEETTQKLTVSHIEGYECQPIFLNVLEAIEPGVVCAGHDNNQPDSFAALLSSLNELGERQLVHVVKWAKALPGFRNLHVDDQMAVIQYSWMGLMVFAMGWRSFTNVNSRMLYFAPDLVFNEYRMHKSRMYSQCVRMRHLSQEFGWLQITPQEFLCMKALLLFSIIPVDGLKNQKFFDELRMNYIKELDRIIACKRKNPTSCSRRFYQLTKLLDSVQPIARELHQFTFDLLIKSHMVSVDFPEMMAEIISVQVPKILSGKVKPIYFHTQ

For experiment [4], the target named is T4, Neuropeptide Y receptor type 1 (Homo sapiens, UniProt P25929).
T4 sequence (P25929 whole entry): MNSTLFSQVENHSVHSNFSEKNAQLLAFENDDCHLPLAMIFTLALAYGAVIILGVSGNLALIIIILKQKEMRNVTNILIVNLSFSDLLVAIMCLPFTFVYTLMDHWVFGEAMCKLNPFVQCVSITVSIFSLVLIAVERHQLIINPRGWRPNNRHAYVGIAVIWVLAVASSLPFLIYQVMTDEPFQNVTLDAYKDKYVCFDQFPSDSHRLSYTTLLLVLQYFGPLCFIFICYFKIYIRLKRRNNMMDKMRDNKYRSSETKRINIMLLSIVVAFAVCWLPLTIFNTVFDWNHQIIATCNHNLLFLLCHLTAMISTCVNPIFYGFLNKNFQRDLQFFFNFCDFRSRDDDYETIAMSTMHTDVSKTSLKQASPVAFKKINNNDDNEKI

In experiment [5] the target is Beta-1 adrenergic receptor (Homo sapiens, UniProt P08588). The experiment is classed as functional.
Beta-1 adrenergic receptor, sequence (P08588 whole entry): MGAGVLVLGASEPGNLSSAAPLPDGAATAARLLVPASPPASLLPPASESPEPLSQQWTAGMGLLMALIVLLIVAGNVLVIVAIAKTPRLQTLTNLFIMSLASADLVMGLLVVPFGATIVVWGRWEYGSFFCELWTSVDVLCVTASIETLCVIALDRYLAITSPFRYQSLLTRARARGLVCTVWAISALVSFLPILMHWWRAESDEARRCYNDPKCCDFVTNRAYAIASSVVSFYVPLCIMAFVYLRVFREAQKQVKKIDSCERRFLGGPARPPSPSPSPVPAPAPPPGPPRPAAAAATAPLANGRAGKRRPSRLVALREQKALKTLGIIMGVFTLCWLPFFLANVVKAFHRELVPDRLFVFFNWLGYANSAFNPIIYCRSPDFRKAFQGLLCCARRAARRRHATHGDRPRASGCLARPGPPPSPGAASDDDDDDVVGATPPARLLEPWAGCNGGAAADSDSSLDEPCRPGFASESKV
For experiment [6], the target named is Histamine H3 receptor (Homo sapiens, UniProt Q9Y5N1).
Histamine H3 receptor, sequence (Q9Y5N1 whole entry): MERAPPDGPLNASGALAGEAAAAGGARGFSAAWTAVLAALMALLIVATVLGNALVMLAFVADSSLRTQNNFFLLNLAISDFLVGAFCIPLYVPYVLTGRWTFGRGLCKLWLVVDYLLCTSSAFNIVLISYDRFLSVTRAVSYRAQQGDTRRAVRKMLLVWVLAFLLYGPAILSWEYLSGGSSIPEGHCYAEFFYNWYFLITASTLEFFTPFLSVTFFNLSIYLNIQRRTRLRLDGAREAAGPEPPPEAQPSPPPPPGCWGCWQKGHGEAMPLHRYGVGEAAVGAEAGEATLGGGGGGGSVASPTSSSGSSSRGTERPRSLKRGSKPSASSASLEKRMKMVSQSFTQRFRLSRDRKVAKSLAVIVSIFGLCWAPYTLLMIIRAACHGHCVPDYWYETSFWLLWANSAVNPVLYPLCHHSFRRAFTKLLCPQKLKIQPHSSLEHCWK
For experiment [7], the target named is T5, Alpha-2A adrenergic receptor (Homo sapiens, UniProt P08913).
T5 sequence (P08913 whole entry): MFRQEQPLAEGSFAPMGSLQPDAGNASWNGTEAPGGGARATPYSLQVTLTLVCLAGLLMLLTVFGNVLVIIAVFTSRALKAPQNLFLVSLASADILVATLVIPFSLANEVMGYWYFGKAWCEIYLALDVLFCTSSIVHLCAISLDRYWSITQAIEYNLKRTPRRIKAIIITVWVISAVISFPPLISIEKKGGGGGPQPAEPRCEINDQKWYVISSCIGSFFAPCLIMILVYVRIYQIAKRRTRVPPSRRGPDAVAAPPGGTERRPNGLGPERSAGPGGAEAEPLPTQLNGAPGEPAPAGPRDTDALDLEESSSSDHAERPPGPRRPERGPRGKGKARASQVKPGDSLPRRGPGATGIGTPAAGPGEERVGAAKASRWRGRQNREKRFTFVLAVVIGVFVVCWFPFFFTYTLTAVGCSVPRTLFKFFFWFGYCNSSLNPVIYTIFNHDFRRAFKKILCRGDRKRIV
In kind it is functional, cell-based.

Experiment [8] has as its target Motilin receptor (Homo sapiens, UniProt O43193).
Experiment [9] has as its target T2, Gamma-aminobutyric acid receptor subunit alpha-1. This is another data set of the same source.
Further: assay procedure not described here.

Motilin receptor, sequence (O43193 whole entry): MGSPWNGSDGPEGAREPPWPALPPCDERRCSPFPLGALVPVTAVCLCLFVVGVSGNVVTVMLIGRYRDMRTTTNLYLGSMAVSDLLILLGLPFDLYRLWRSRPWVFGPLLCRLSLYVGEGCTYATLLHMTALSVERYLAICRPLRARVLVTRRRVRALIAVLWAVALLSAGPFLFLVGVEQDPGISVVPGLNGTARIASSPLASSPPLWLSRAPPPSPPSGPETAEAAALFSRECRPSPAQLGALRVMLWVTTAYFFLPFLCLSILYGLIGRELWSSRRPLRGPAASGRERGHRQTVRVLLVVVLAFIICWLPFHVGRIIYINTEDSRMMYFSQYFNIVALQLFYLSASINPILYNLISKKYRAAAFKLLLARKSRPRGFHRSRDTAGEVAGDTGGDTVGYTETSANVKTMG

Consider `Cc1cc2c(cc1S(N)(=O)=O)S(=O)(=O)CCC2`, for which the concentration at half-maximal activity (AC50) in [1] and in [2] was over 30 µM each time.

For `CC1(C)S[C@@H]2[C@H](/N=C/N3CCCCCC3)C(=O)N2[C@H]1C(=O)O` [AMDINOCILLIN], the AC50 in experiment [1] and in experiment [2] was over 30 µM in each case.

For the compound `NC(=O)[C@@H]1CC[C@@H]2CN1C(=O)N2OS(=O)(=O)O` [AVIBACTAM], the half-maximal activity concentration (AC50) in experiment [1] and in experiment [3] was over 30 µM each time.

With `CC(O)(CS(=O)(=O)c1ccc(F)cc1)C(=O)Nc1ccc(C#N)c(C(F)(F)F)c1` (centres undefined) [BICALUTAMIDE], the AC50 was over 30 µM in experiment [4]; over 30 µM in experiment [5]; over 30 µM in [6]; over 10 µM in [7]; over 30 µM in [8]; over 10 µM in [9]. In [2], this compound came in with an AC50 of over 30 µM.

Take `NC[C@H]1CC[C@H](C(=O)Oc2ccc(CCC(=O)O)cc2)CC1` [CETRAXATE]: the AC50 in experiment [7], in [9] and in [2] was over 30 µM throughout.

As for `Cc1ncc2c(c1O)COC2c1ccc(Cl)cc1` (centres undefined) [CICLETANINE], the AC50 in [1] and in experiment [3] was over 30 µM throughout.

Turning to `Cc1cn([C@H]2O[C@@H](CO)[C@H](O)[C@H]2F)c(=O)[nH]c1=O` [CLEVUDINE], the AC50 in experiment [1] and in experiment [2] was over 30 µM in each case.

Consider `CC(=O)O[C@]1(C(C)=O)CC[C@H]2[C@@H]3C=C(Cl)C4=CC(=O)[C@@H]5C[C@@H]5[C@]4(C)[C@H]3CC[C@@]21C` [CYPROTERONE ACETATE], for which the AC50 in experiment [4] was over 30 µM; in [5], over 10 µM; in experiment [6] it was over 10 µM; in experiment [8], over 10 µM; in experiment [9], over 10 µM; in experiment [2], over 30 µM.

As to `CC(=O)[C@H]1CC[C@H]2[C@@H]3C=CC4=CC(=O)CC[C@@]4(C)[C@@H]3CC[C@]12C` [DYDROGESTERONE], the AC50 in experiment [1] and in experiment [2] was over 30 µM in each case.

As to `CC(=O)O[C@H]1Cc2ccccc2N(C(N)=O)c2ccccc21` [ESLICARBAZEPINE ACETATE], the AC50 in experiment [1] and in experiment [3] was over 30 µM in each case.

Regarding `CC(O)(P(=O)(O)O)P(=O)(O)O` [ETIDRONIC ACID], the AC50 in [2] is over 30 µM.

With `Cc1ccc(S(=O)(=O)NC(=O)NC2CCCCC2)cc1` [GLYCYCLAMIDE], the AC50 in [1] and in [2] was over 30 µM each time.

Turning to `CC(=O)OCC(=O)[C@@]1(O)CC[C@H]2[C@@H]3CCC4=CC(=O)CC[C@]4(C)[C@H]3[C@@H](O)C[C@@]21C` [HYDROCORTISONE ACETATE], the AC50 in experiment [1] and in experiment [2] was over 30 µM in each case.

For the compound `CC(COc1ccccc1)NC(C)C(O)c1ccc(O)cc1` (centres undefined) [ISOXSUPRINE], the half-maximal activity concentration (AC50) in [1] and in [2] was over 30 µM in each case.

In the case of `COc1ccc(OC)c(C(O)C(C)N)c1` (centres undefined) [METHOXAMINE], the concentration at half-maximal activity (AC50) in [1] and in experiment [3] was over 30 µM in each case.

With `CC1(CCN2CCCCC2)C(=O)CCc2ccccc21` (centres undefined) [NEPINALONE], the AC50 in [1] and in experiment [3] was over 30 µM in each case.

For `COc1cccc(C(=O)CCN[C@@H](C)[C@H](O)c2ccccc2)c1` [OXYFEDRINE], the half-maximal activity concentration (AC50) in experiment [1] and in experiment [3] was over 30 µM throughout.

`CC[N+](C)(CC)CCOC(=O)C(O)(c1ccccc1)C1CCCCC1` (centres undefined) [OXYPHENONIUM] registered an AC50 in [1] of over 30 µM.

As for `CCC[C@H](N[C@@H](C)C(=O)N1[C@H](C(=O)O)C[C@@H]2CCCC[C@@H]21)C(=O)OCC` [PERINDOPRIL], the AC50 in [1] and in experiment [2] was over 30 µM throughout.

Turning to `NNCCc1ccccc1` [PHENELZINE], the AC50 in [2] was over 30 µM.

For `O=C1c2ccccc2C(=O)C1c1ccccc1` [PHENINDIONE], the AC50 in experiment [4], in experiment [5], in experiment [6], in [7], in [8] and in [9] was over 10 µM each time.

On to `N[C@@H](Cc1ccccc1)C(=O)O` [PHENYLALANINE], for which the AC50 in [1] and in experiment [2] was over 30 µM each time.

On to `Cc1cccc(C)c1NC(=O)CC12CCCN1CCC2` [PILSICAINIDE], for which the AC50 in experiment [4], in experiment [5], in experiment [6], in [7], in experiment [8] and in experiment [9] was over 30 µM throughout.

In the case of `CN[C@@H](C)[C@@H](O)c1ccccc1` [PSEUDOEPHEDRINE], the half-maximal activity concentration (AC50) in experiment [4] was over 30 µM; in experiment [5], over 10 µM; in experiment [6] it was over 10 µM; in experiment [7], over 10 µM; in experiment [8], over 10 µM; in experiment [9] it was over 10 µM.

As for `CCCN1CC(NS(=O)(=O)N(CC)CC)CC2Cc3c(O)cccc3CC21` (centres undefined) [QUINAGOLIDE], the AC50 in experiment [4], in [5], in [6], in experiment [7], in experiment [8] and in experiment [9] was over 30 µM throughout.

For `Clc1ccc(C(Cn2ccnc2)OCc2csc3c(Cl)cccc23)c(Cl)c1` (centres undefined) [SERTACONAZOLE], the AC50 in [1] was over 30 µM; in [3], 0.0201 µM.

In the case of `C[C@]12CCC(=O)C[C@@H]1CC[C@@H]1[C@@H]2CC[C@]2(C)[C@@H](O)CC[C@@H]12` [STANOLONE], the AC50 in experiment [4], in [5], in experiment [6], in experiment [7], in experiment [8] and in experiment [9] was over 30 µM in each case.

Regarding `O=C1OC(OC(=O)c2cccnc2Nc2cccc(C(F)(F)F)c2)c2ccccc21` (centres undefined) [TALNIFLUMATE], the AC50 in [4], in experiment [5], in experiment [6], in [7], in experiment [8] and in [9] was over 30 µM each time.

Take `COc1ccc2c(C(=S)N(C)CC(=O)O)cccc2c1C(F)(F)F` [TOLRESTAT]: in experiment [2], the AC50 was over 30 µM.

For `CCOC(=O)c1c(CSc2ccccc2)n(C)c2cc(Br)c(O)c(CN(C)C)c12` [UMIFENOVIR], the half-maximal activity concentration (AC50) in experiment [4] was over 30 µM; in experiment [5], over 30 µM; in experiment [6], over 30 µM; in experiment [7], over 30 µM; in [8], 3.7 µM; in experiment [9], over 30 µM.
